The text below walks through data of patent US20050124618A1, “Methods of modulating angiogenesis and cancer cell proliferation” (priority 2003, published 2005).

Assay [1] relates to 20-HETE. Nature of the assay: 20-HETE formation in electrically stimulated skeletal (TA) muscle of rats. The format is in vivo, rat. The protocol: Experimental protocols and tissue preparation: After a 24-h recovery period, the implanted stimulator was activated by momentary closure of the magnetic reed switch using a small hand-held magnet. […] Contractions of the extensor digitorum longus (EDL) and tibialis anterior (TA) muscles were automatically initiated at 9 AM each day and sustained for 8 h/day over a consecutive 7-day period. At the end of the stimulation period, the animals were euthanized by an overdose of pentobarbital sodium (100 mg/kg ip), and the EDL and TA muscles were harvested for analysis as previously described (Greene A S et al., Hypertension 15: 779-783, 1990; and Parmentier J H et al., Hypertension 37: 623-629, 2001).
The rats were divided in four groups. […] This dose was chosen based on our previous results (Kehl F et al., Am J Physiol Heart Circ Physiol 282: H1556-H1565, 2002).
To determine the contribution of VEGF to the angiogenesis induced by electrical stimulation, six rats in group 3 were treated with 3 mg/kg ip injections of a monoclonal VEGF-neutralizing antibody (Texas Biotechnology; Houston, Tex.) during the period of electrical stimulation. The protocol for administration of VEGF-neutralizing antibody was modified from Zheng W et al. (Circ Res 85: 192-198, 1999), and this dose was based on our previous results (Amaral S L et al., Microcirculation 8: 57-67, 2001). After the stimulation period was started, the rats received intraperitoneal injections on days 3, 5, and 7 (0.6 mg/100 g).
Muscle preparations for measurement of 20-HETE: The 100-200 mg of frozen TA muscle were homogenized in a solution containing 1 ml of acidified water and 50 μl of an internal standard, WIT-002, which was synthesized and kindly provided by Taisho Pharmaceutical. Ethyl acetate (3 ml, Fisher Scientific; Pittsburgh, Pa.) was added to the mixture and gently vortexed. The homogenized tissues were then centrifuged at 3,000 revolutions/min for 2 min. With the use of a glass Pasteur pipet, the top layer was removed and transferred to a sterile glass vial, and the samples were dried under nitrogen and stored at −80° C.
Labeling of samples and fluorescent detection of 20-HETE: Detection of 20-HETE was performed as previously described (Ma Y H et al., Am J Physiol Regul Integr Comp Physiol 267: R579-R589, 1994). Samples, which were extracted and dried under argon, were resuspended in 20 μl of acetonitrile containing 36.4 mM 2-(2,3-napthalimino)ethyl trifluoromethanesulfonate, and N,N-diisopropylethylamine (10 μl) was added as a catalyst. The sample was reacted for 30 min at room temperature, dried under argon, resuspended in 1 ml of 40% acetonitrile-water, and applied to a Sep-Pak Vac column. The column was washed with 6 ml of 50% acetonitrile-water solution to remove unreacted dye, eluted with 500 μl of ethyl acetate, dried under argon, and resuspended in 100 μl of the HPLC mobile phase [methanol-water-acetic acid, 82:18:0.1 (vol/vol)]. A 25-μl aliquot of the derivatized sample was separated on a 4.6×250-mm Symmetry C18 reverse-phase HPLC column (Waters) isocratically at a rate of 1.3 ml/min using methanol-water-acetic acid (82:18:0.1 (vol/vol)) as the mobile phase. Fluorescence intensity monitored using an in-line fluorescence detector (model number L-7480, Hitachi; Naperville, Ill.) at medium gain sensitivity. The amount of 20-HETE in the sample was determined by comparing the area of the 20-HETE peak with that of the internal standard (WIT-002).

Assay [2] deals with U251 human glioma cells. Nature of the assay: DNA fragmentation and TUNEL assays in U251 cells. The settings on record: HET0016. The format is cell-based. As to the method: DNA Fragmentation and TUNEL Assays: HET0016-treated cultures were washed twice with 1×PBS and incubated with lysis buffer [20 mM Tris-HCl, 10 mM EDTA, 0.3% Triton X-100]. Genomic DNA was extracted and separated on a 2% agarose gel. Separated DNA was visualized by staining gels with ethidium bromide (EtBr). […] Coverslips were washed 3× with PBS and air-dried. Samples were then fixed with a freshly prepared fixation solution (4% paraformaldehyde in PBS, pH 7.4) for 1 hr at room temperature, followed by incubation in fresh permeabilization solution (0.1% Triton X-100 in 0.1% sodium citrate) for 2 min on ice. Finally, samples were processed using in situ Cell Death Detection Kit, AP (Roche Diagnostics, Indianapolis, Ind.) according to the manufacturer's recommendations.

The subject of assay [3] is HUVECs. Description: Proliferation of normal HUVECs (comparison with U251). The format is cell-based, human. Particulars: 10 μM HET0016, 48 hrs; DDMS concentration not given. As to the method: Mean values±SD from three separate experiments, each performed in triplicate, are presented. *** indicates p<0.001 from the respective control values.
Cell Proliferation Assays: Proliferation studies were performed with cultures plated at a density that ensured exponential growth for at least 5 days. Growth medium was generally replaced by serum-free medium 24 hr after plating. Cells were treated with various concentrations of a given compounds for 24 or 48 hr as described in the Methods. […] Organic solvent never exceeded 0.1% of total culture volume. Cells were harvested by exposure to 0.05% trypsin/EDTA and counted using a hemocytometer.

Molecules are shown by their SMILES. “Also recorded” adds a separate entry of the source.

Take `CCCCc1ccc(N=CNO)c(C)c1` [HET0016, N-hydroxy-N′-(4-butyl-2 methylphenyl) formamidine]: the “effect on the increase of 20-HETE formation induced by electrical stimulation” value in assay [1] (7 days of electrical stimulation, chronic treatment) is “completely blocked”. Moreover, the “20-HETE formation in skeletal muscle, unstimulated side” value in assay [1] (rats treated 7 days, TA muscle) is on record as 110.26±28.36 ng/g muscle. For the same molecule, the “20-HETE formation in skeletal muscle, stimulated side” value in assay [1] (rats treated 7 days, TA muscle, 7 days electrical stimulation) is 102.1±22.3 ng/g muscle. The “effect on basal formation of 20-HETE in skeletal muscle” value in assay [1] (treatment for 7 days) is on record as “did not change the basal formation”. The “induction of apoptosis (DNA fragmentation and TUNEL)” value in assay [2] was “does not induce apoptosis”. The “effect on basal growth or proliferation of normal HUVECs” value in assay [3] is reported as “Neither DDMS or HET0016 had any effect; also recorded: had no effect on the basal growth or proliferation; also recorded: had no effect on the proliferation”.
